The results in this text go back to patent US4118561A, “7-(Substituted)-7H-pyrrolo[3,2-f]quinazoline-1,3-diamines” (priority 1977, dated 1978).

≈ marks a conversion by molar mass, not a printed value.

The subject of assay [1] is S. paratyphi 11737. The assay can be described thus: In vitro antibacterial activity (MIC), S. paratyphi 11737. The following applies: Salmonella enterica, 18 h. In kind it is cell-based.
Assay [2] relates to Plasmodium berghei KBG 173. The assay can be described thus: Antimalarial blood schizonticidal test in mice. It is filed as in vivo, Plasmodium berghei (infected ICR/HA Swiss mice). Set-up: ΔMST (increase in mean survival time): unit: days. The note with it: s.c.; for minimal effective dose: Plasmodium berghei, sc, 1440 h, single dose, read-out: Min. Curing Dose; for minimal effective dose / Cure/Treat at Min. Curing Dose: 60-day survivors; for Cure/Treat at Min. Curing Dose: at the Min. Curing Dose. The source says: In addition, the invention provides compounds which have antimalarial activity in vivo as evidenced by a standard blood schizonticidal test in mice infected with Plasmodium berghei KBG 173.
Utilizing young ICR/HA Swiss mice and a standard inoculum of Plasmodium berghei KBG 173, it is possible to produce a uniform disease fatal to 100% of untreated animals within 6 to 8 days with a mean survival time of 6.2 days. Test animals weigh from 18 to 22 grams but weight variations in any given experimental or control group are confined to 2-3 grams. All animals in any given test are approximately of the same age. Animals on test are housed in metal-topped plastic cages, given a standard laboratory diet and water ad libitum.
Test animals receive an intraperitoneal injection of 0.5 ml. of 1:100 dilution of heparinized heart's blood with a minimum of 90% parasitized cells (4 × 10^7 cells), drawn from donor mice infected one week earlier with Plasmodium berghei. The donor strain is maintained by weekly passages in separate groups of mice inoculated with a 0.5 ml. of 1:500 dilution of heparinized heart's blood.
Test compounds are administered after dissolution or suspension in peanut oil. A single dose is given subcutaneously 72 hours after the mice are infected with Plasmodium berghei. At this time a 10-15 percent parasitemia has developed; the disease is well established but has not produced sufficient debility to alter the response of the host to toxic effects of the drug on test. Since treatment is withheld for three days to permit the infection to become well established and death occurs in untreated controls within 6-8 days, it is felt that this system presents a candidate compound with the maximum challenge. In order to check factors such as changes in the infectivity of Plasmodium berghei or in the susceptibility of the host or to detect technical errors, a group of infected animals treated with pyrimethamine at dose levels producing definite increases in survival time is included in a positive control in every experiment.
In each experiment test compounds are administered in graded dosages. […] However, if an active drug is toxic for the host, its toxicity may become a limiting factor; continued increases in dose levels also increase the toxic effects and may result in the diminution of survival times. Deaths prior to the sixth day, when untreated controls begin to die, are regarded as nonparasitic and become the basis for toxicity evaluations. […] In calculating mean survival time, toxic deaths and 60-day survivors are not included.
Compounds are considered active which produce a cure in at least one test animal or which produce significant increases in mean survival times of the treated animals as compared with the mean survival times of untreated controls, provided that no drug related deaths (toxicity) are noted at the active dose.

Assay [3] concerns E. coli 9637. Briefly: In vitro antibacterial activity (MIC), E. coli 9637. The note with it: Escherichia coli, 9637, 18 h.
For assay [4], the system named is S. aureus Smith. The assay can be described thus: In vitro antibacterial activity (MIC), S. aureus Smith. The following applies: Staphylococcus aureus, 18 h.
Assay [5] has as its system S. aureus 53-180. Briefly: In vitro antibacterial activity (MIC), S. aureus 53-180. The following applies: Staphylococcus aureus, 53180, 18 h.
Assay [6] relates to P. vulgaris 6896. Briefly: In vitro antibacterial activity (MIC), P. vulgaris 6896. The note with it: Proteus vulgaris, 6896, 18 h.
Assay [7] concerns N. catarrhalis 8193. Briefly: In vitro antibacterial activity (MIC), N. catarrhalis 8193. The following applies: 18 h.
For assay [8], the system named is K. pneumoniae 10031. Briefly: In vitro antibacterial activity (MIC), K. pneumoniae 10031. The note with it: Klebsiella pneumoniae, 10031, 18 h.

With `Nc1nc(N)c2c(ccc3c2ccn3Cc2cccc(C(F)(F)F)c2)n1` [Example 12], the MIC (usually the lowest concentration that inhibits growth of the organism) in assay [1] came to 7.81 µg/mL (≈ 21.9 µM); in assay [3], 0.976 µg/mL (≈ 2.73 µM); in assay [4], 0.488 µg/mL (≈ 1.37 µM); in assay [5] it was 0.244 µg/mL (≈ 0.683 µM); in assay [6], 62.5 µg/mL (≈ 175 µM); in assay [7] it was 0.122 µg/mL (≈ 0.341 µM). In addition, 0.488 µg/mL (≈ 1.37 µM) was the least that counted as inhibitory in assay [8] (MIC). For the same compound, the minimal effective dose in assay [2] turned out to be 5 mg/kg. In addition, in assay [2], the “Cure/Treat at Min. Curing Dose” value is on record as 1/5. Besides, in assay [2] (dose 2.5 mg. per kg.), the “ΔMST (increase in mean survival time)” value was determined as 7.5.
As to `Cc1ccccc1Cn1ccc2c3c(N)nc(N)nc3ccc21` [Example 19], the minimal inhibitory concentration (MIC) was found to be 3.9 µg/mL (≈ 12.9 µM) in assay [1]; 0.976 µg/mL (≈ 3.22 µM) in assay [3]; 0.488 µg/mL (≈ 1.61 µM) in assay [4]; 0.488 µg/mL (≈ 1.61 µM) in assay [5]; 7.81 µg/mL (≈ 25.7 µM) in assay [6]; 0.0152 µg/mL (≈ 0.0501 µM) in assay [7]. Besides, the lowest concentration to inhibit growth in assay [8] (MIC) was 0.122 µg/mL (≈ 0.402 µM). For the same compound, the minimal effective dose in assay [2] is 40 mg/kg. For the same compound, in assay [2], the “Cure/Treat at Min. Curing Dose” value is 3/5. In addition, the “ΔMST (increase in mean survival time)” value in assay [2] (dose 40 mg. per kg.) was determined as 8.4.
With `Nc1nc(N)c2c(ccc3c2ccn3Cc2ccc3c(c2)OCO3)n1` [Example 38], the MIC was 15.6 µg/mL (≈ 46.8 µM) in assay [1]; 7.81 µg/mL (≈ 23.4 µM) in assay [3]; 7.81 µg/mL (≈ 23.4 µM) in assay [4]; 1.95 µg/mL (≈ 5.85 µM) in assay [5]; 31.3 µg/mL (≈ 93.9 µM) in assay [6]; 0.244 µg/mL (≈ 0.732 µM) in assay [7]. This compound displayed an MIC in assay [8] of 1.95 µg/mL (≈ 5.85 µM). For the same compound, the minimal effective dose in assay [2] turned out to be 10 mg/kg. Also, in assay [2], the “Cure/Treat at Min. Curing Dose” value is 2/5. The “ΔMST (increase in mean survival time)” value in assay [2] (dose 2.5 mg. per kg.) is 12.2.
Turning to `Nc1nc(N)c2c(ccc3c2ccn3CC2CCCCC2)n1` [Example 54], the MIC in assay [1] was 7.81 µg/mL (≈ 26.4 µM); in assay [3], 1.95 µg/mL (≈ 6.6 µM); in assay [4], 7.81 µg/mL (≈ 26.4 µM); in assay [5] it was 3.9 µg/mL (≈ 13.2 µM); in assay [6] it was 3.9 µg/mL (≈ 13.2 µM); in assay [7] it was 0.0152 µg/mL (≈ 0.0515 µM). For the same compound, the MIC in assay [8] turned out to be 0.488 µg/mL (≈ 1.65 µM). The “ΔMST (increase in mean survival time)” value in assay [2] (dose 40 mg. per kg.) came out at 8.5.
As for `CC(C)=CCn1ccc2c3c(N)nc(N)nc3ccc21` [Example 55], the MIC in assay [1] is 7.81 µg/mL (≈ 29.2 µM); in assay [3], 3.9 µg/mL (≈ 14.6 µM); in assay [4], 1.95 µg/mL (≈ 7.29 µM); in assay [5], 0.976 µg/mL (≈ 3.65 µM); in assay [6], 7.81 µg/mL (≈ 29.2 µM); in assay [7], 0.0038 µg/mL (≈ 0.0142 µM). In addition, in assay [8], it took 0.488 µg/mL (≈ 1.83 µM) to inhibit growth (MIC). Moreover, the minimal effective dose in assay [2] was 640 mg/kg. In addition, the “Cure/Treat at Min. Curing Dose” value in assay [2] was 3/5. Further, in assay [2] (dose 320 mg. per kg.), the “ΔMST (increase in mean survival time)” value was found to be 9.3.
As to `CC(C)CCn1ccc2c3c(N)nc(N)nc3ccc21` [Example 66, 7-(3-Methylbutyl)-7H-pyrrolo[3,2-f]quinazoline-1,3-diamine], the MIC came to 3.9 µg/mL (≈ 14.5 µM) in assay [1]; 0.976 µg/mL (≈ 3.62 µM) in assay [3]; 1.95 µg/mL (≈ 7.24 µM) in assay [4]; 0.976 µg/mL (≈ 3.62 µM) in assay [5]; 3.9 µg/mL (≈ 14.5 µM) in assay [6]; 0.0038 µg/mL (≈ 0.0141 µM) in assay [7]. In assay [8], this compound had an MIC of 0.244 µg/mL (≈ 0.906 µM). In addition, the “ΔMST (increase in mean survival time)” value in assay [2] (dose 320 mg. per kg.) is on record as 8.1.
As to `CC(=O)c1ccccc1-n1ccc2c3c(N)nc(N)nc3ccc21` [Example 70], the MIC in assay [1] worked out at 0.488 µg/mL (≈ 1.54 µM); in assay [3] it was 0.244 µg/mL (≈ 0.769 µM); in assay [4], 0.061 µg/mL (≈ 0.192 µM); in assay [5], 0.031 µg/mL (≈ 0.0977 µM); in assay [6], 0.976 µg/mL (≈ 3.08 µM); in assay [7], 0.0076 µg/mL (≈ 0.0239 µM). Also, the MIC in assay [8] was 0.0152 µg/mL (≈ 0.0479 µM). Moreover, the minimal effective dose in assay [2] is 40 mg/kg. The “Cure/Treat at Min. Curing Dose” value in assay [2] is listed as 1/5. For the same compound, the “ΔMST (increase in mean survival time)” value in assay [2] (dose 40 mg. per kg.) was determined as 9.2.
As to `CC(=O)c1ccc(-n2ccc3c4c(N)nc(N)nc4ccc32)cc1` [Example 71], the MIC in assay [1] is 7.81 µg/mL (≈ 24.6 µM); in assay [3], 0.976 µg/mL (≈ 3.08 µM); in assay [4] it was 1.95 µg/mL (≈ 6.14 µM); in assay [5], 0.488 µg/mL (≈ 1.54 µM); in assay [6], 15.6 µg/mL (≈ 49.2 µM); in assay [7] it was 0.031 µg/mL (≈ 0.0977 µM). The compound further had an MIC in assay [8] of 0.122 µg/mL (≈ 0.384 µM). The minimal effective dose in assay [2] was determined as 40 mg/kg. Also, the “Cure/Treat at Min. Curing Dose” value in assay [2] is listed as 1/5. Also, in assay [2] (dose 20 mg. per kg.), the “ΔMST (increase in mean survival time)” value was determined as 8.8.
